We go through 2 compounds from US20150204881A1, “Biomarkers For Diagnosis Of Diabetes And Monitoring Of Anti-Diabetic Therapy” (Sumitomo Bakelite Co., Ltd., priority 2012, published 2015).

Assay [1] deals with db/db mice. In words: HbA1c in treated db/db mice. The class given is in vivo, mouse.
Assay [2] concerns db/db mice. Nature of the assay: Plasma N-glycan profiling (MALDI-TOF MS) in insulin detemir- vs vehicle-treated db/db mice. The class given is in vivo, mouse. The protocol:
A 10 μl aliquot of each plasma sample was spiked with internal standard (700 pmol) and analyzed for N-linked glycans using Ezose Sciences' GLYCANMAP methodology. The samples were denatured and then digested with trypsin, followed by heat-inactivation. The mixture was then treated with PNGase F. After enzymatic release of N-glycans, aliquots were subjected to solid-phase processing using BLOTGLYCO beads. Following capture on the beads, the sialic acid residues were methyl esterified. The glycans were simultaneously released from the beads and labeled, and then aliquots of the recovered materials were spotted onto a MALDI target plate. Steps from initial aliquoting to spotting on the MALDI plate were performed using the fully automated SWEETBLOT technology. MALDI-TOF MS analysis was performed on an ultraflex III mass spectrometer (Bruker Daltonics) in the positive-ion, reflector mode. Each sample from the BLOTGLYCO bead processing step was spotted in quadruplicate, and spectra were obtained in an automated manner using the AutoXecute feature in flexControl software (Bruker Daltonics). Proposed glycan structures were assigned based on molecular weight. These methods have been described previously by Nishimura, Furukawa and Miura (Nishimura et al., Angew Chem. Int. Ed. Engl., 44: 91-96 (2004); Furukawa et al., Anal. Chem., 80: 1094-1101 (2008); Miura et al., Chem.-A Eur. J, 13: 4797-4804 (2007)). Alternatively, standard fluorescent HPLC or capillary electrophoresis methods with 2-AA, 2-AB, or APTS labeling can be used to monitor the glycan levels and changes in glycan patterns.
A further study was undertaken to evaluate the performance of candidate biomarkers discovered using rosiglitazone in mice treated with a diabetes drug having a different mechanism of action. The candidate biomarkers that were identified in Example 1 were evaluated in db/db mice treated with insulin detemir and vehicle.
Plasma samples were analyzed from ten db/db mice at baseline (0 days) and from 20 db/db mice (ten vehicle and ten insulin detemir-treated) at 7, 14, and 21 days. Sample preparation and analysis followed the protocol described in Example 1.
Concentrations of individual glycans in insulin detemir- and vehicle-treated db/db mice were compared at each time-point using the Student's t-test. N-glycans which yielded p-values <0.05 in this analysis were considered significant. Time-dependence was also evaluated for each of the candidate biomarkers by comparing each time-point to baseline.

The mark [3] stands for this setting: db/db mice treated with insulin detemir vs vehicle.
The mark [4] stands for this setting: plasma, db/db mice vs vehicle, 7, 14, 21 days.

For `CN(CCOc1ccc(CC2SC(=O)NC2=O)cc1)c1ccccn1` (centres unmarked) [Rosiglitazone], the “Time until HbA1c difference reached p<0.001 significance” value with db/db mice [1] (first rosiglitazone study, db/db mice vs vehicle) was found to be 21 days.

In the case of insulin detemir, the “Changes in HbA1c” value in the assay with db/db mice [1] (insulin-treated db/db mice, compared with rosiglitazone) is reported as “more subtle changes”. Further, in the assay with db/db mice [2] (setting [3]), the “Changes in Glycan 540020” value is recorded as “no significant changes”, the “Changes in O-acetylated N-glycans” value is listed as “no significant changes” and the “Changes in fucosylated N-glycans” value is reported as “no significant changes”. Moreover, in the assay on db/db mice [2] (db/db mice vs vehicle, significant at Day 7, 14 and 21, lower in magnitude than with rosiglitazone), the “High mannose glycans (520000, 620000, 720000, 820000) with insulin detemir treatment” value was “lower levels”. Besides, the “Hybrid glycans (430010, 530010, 630010) vs vehicle-treated controls” value with db/db mice [2] (db/db mice, as early as Day 7) was “significant decreases”. Also, in the assay with db/db mice [2] (setting [4]), the “Direction of Change with Insulin Detemir: High Mannose glycan 520000” value is “Decreased”, the “Direction of Change with Insulin Detemir: High Mannose glycan 620000” value is on record as “Decreased”, the “Direction of Change with Insulin Detemir: High Mannose glycan 720000” value is recorded as “Decreased” and the “Direction of Change with Insulin Detemir: High Mannose glycan 820000” value is listed as “Decreased”. In the assay on db/db mice [2] (setting [4]), the “Direction of Change with Insulin Detemir: Hybrid glycan 430010” value is “Decreased”, the “Direction of Change with Insulin Detemir: Hybrid glycan 530010” value is given as “Decreased” and the “Direction of Change with Insulin Detemir: Hybrid glycan 630010” value is “Decreased”.
